From paper PMC3596083 (Beilstein Journal of Organic Chemistry, 2013)
“And” between values parts separate entries of the source, which are not always exact repeats. Identical values can stand only once. “Also recorded” adds a separate entry of the source. Like-named read-outs stand apart in the source and are kept apart here.

What was measured:
[1] = tested on: GABAA-receptors; set-up: method as in PMID 12113824; conditions: cited from earlier work; for agonist character on GABAA-channels: chloride-flux assays on synaptoneurosomes
[2] = biological target: T1, GABAA-receptors (α1-GFP + β2 + γ2Long) expressed in CHO cells (Homo sapiens, UniProt P14867+P47870); assay: Whole-cell patch-clamp recordings with fast perfusion on CHO cells transiently expressing GABAA-receptors; assay type: cell-based; conditions: for changes in the current: application of 10 mM
T1 construct: expressed in transfected cells; host or cells: CHO-K1 (ATCC), transient transfection with Lipofectamine 2000
Procedure: (§1) The investigations in this study were performed by using a standard ^36Cl^−-flux assay in mouse brain synaptoneurosomes. […] Moreover, ^36Cl^−-flux assays were carried out by using a 15 s incubation time. […] The activity of synthesized compounds was tested by using CHO cells transiently expressing GABAA-receptors in the configuration (α1-GFP + β2 + γ2Long). To analyze the functional properties of the compounds, we performed monitoring of ionic currents using whole-cell patch-clamp techniques. […] Then we applied different concentrations of the studied compounds and estimated the minimal concentration that induced currents and, if possible, their EC50.
Cell culture and transient transfection
Chinese Hamster Ovary (CHO-K1) cells were obtained from the American Type Culture Collection (ATCC, Molsheim, France) and maintained as previously described. One day before the transfection, cells were plated on the coverslips (12–14 mm in diameter), which were placed inside 35 mm cell culture dishes with 2 mL of medium. CHO cells were transfected with a total 3 µg cDNA of α1-GFP + β2 + γ2Long (ratio 1:1:1) using the Lipofectamine 2000 transfection protocol (Life Technology, USA). Three hours after the initial exposure of the cells to the cDNAs, a fresh […] solution replaced the old one.
Electrophysiological recordings were performed from fluorescent cells 48–72 hours after […]
Electrophysiological recordings
Whole-cell recordings were conducted on CHO-K1 cells at room temperature (20–25 °C) using an EPC-9 amplifier (HEKA Elektronik, Germany). Cells were continuously superfused with external solution containing (mM): NaCl 140, CaCl2 2, KCl 2.8, MgCl2 1, HEPES 20, glucose 10; pH 7.3; 320–330 mOsm. The patch pipette solution contained (mM): CsCl 140, MgCl2 2, MgATP 2, NaGTP 0.4, HEPES/CsOH 10, BAPTA/KOH 20; pH 7.3; 290 mOsm.
Pipettes were pulled from borosilicate glass capillaries (Harvard Apparatus Ltd, USA) and had resistances of 5–8 MΩ.
For rapid replacement of solutions, a system of two parallel rectangular tubes, 100 µm in diameter, located at a distance of 40–50 µm from the tested cell, was used. The movement of tubes was controlled by a computer-driven fast exchange system (SF 77A Perfusion Fast-Step, Warner, USA). As measured by open tip electrode controls (1/10 NaCl), in this system a 20–80% solution exchange time was within 2–3 ms. Cells with a low input resistance (<150 MΩ) were excluded from analysis.
For quantitative estimations of agonist action, dose-response relationships were fitted by the […]
I = Imax / (1 + (EC50/ [C])n) where I is the current amplitude induced by the agonist at concentration [C], Imax is the maximum response of the cell, n is the Hill coefficient and EC50 is the concentration for which a half-maximum response is induced. Concentration-response relationships were constructed using at least four points. […]

[3] = tested on: GABAA-receptors; assay: Standard 36Cl−-flux assay in mouse brain synaptoneurosomes (Carlier et al.); assay type: cell-based; conditions: ratio of the EC50 values of ref 13
Procedure: as §1

[4] = whole-cell currents, mean ± error over x tested cells, read-out: EC50, mean

T1 sequence (P14867 28-456): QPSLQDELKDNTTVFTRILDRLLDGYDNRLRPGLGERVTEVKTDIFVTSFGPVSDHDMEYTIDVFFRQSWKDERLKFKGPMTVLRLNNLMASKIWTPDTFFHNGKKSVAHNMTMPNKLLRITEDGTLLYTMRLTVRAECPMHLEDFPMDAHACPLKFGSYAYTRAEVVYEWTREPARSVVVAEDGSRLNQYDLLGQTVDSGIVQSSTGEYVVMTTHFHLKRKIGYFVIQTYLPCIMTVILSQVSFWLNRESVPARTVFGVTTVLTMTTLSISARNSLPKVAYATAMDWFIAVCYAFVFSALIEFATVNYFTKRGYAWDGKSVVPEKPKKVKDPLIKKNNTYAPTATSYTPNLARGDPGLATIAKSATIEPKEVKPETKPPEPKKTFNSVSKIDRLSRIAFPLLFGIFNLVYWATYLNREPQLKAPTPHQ
T1 sequence (P47870 25-512 limits assumed): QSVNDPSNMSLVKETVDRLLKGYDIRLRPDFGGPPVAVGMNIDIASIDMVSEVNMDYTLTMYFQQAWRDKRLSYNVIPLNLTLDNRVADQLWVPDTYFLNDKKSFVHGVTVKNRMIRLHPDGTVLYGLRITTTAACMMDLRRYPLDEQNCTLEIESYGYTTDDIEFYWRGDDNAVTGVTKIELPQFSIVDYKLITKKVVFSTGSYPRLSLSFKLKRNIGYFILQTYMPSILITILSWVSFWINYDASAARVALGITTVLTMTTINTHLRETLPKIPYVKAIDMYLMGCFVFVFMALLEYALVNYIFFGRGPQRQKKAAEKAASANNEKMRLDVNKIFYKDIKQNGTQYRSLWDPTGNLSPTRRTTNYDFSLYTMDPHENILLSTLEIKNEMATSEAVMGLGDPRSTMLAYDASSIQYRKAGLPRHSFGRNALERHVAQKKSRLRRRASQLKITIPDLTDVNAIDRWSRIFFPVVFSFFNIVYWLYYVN
T1 sequence (P18507 40-475 partner): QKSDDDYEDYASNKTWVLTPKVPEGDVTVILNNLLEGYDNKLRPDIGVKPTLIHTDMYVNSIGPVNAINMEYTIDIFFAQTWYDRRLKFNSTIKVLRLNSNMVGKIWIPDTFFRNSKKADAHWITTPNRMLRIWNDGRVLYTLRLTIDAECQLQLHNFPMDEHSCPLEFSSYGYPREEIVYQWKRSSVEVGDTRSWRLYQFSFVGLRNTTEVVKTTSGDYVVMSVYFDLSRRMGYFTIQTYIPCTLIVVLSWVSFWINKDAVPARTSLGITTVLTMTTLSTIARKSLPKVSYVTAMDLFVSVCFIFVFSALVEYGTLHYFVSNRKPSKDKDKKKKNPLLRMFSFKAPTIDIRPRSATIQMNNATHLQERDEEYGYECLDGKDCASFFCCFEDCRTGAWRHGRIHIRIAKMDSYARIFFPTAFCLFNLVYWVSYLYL

Structure (SMILES) | agonist character on GABAA-channels [1] | melting point [°C] | EC50 [2, 4] [mM] | other results
NCCCC(=O)NCCCCCCCCNC(=O)CCCN [4c] | partial, full or superagonists | – | – | induction of whole-cell currents ([2]; concentration of 15 mM): not able to induce currents
NCCCC(=O)NCCCCCCNC(=O)CCCN [4b] | superagonist; also recorded: partial, full or superagonists | – | – | EC50 ([1]; 36Cl−-flux, mouse brain synaptoneurosomes, 15 s incubation, read-out: EC50 (Cl− uptake)): 0.733 mM; maximum Cl− uptake higher than that achieved by GABA ([1]; 36Cl−-flux, mouse brain synaptoneurosomes): about 50%; EC50 fold higher than for GABA [3]: more than 30 fold; changes in the current ([2]; x = 4): 0 pA
Cl.Cl.NCCCCCCCCNC(=O)CCCN [7e] | – | 136 to 138 | – | current amplitude ([2]; at 5 mM, x = 3): 10–20 pA
Cl.Cl.NCCCC(=O)NCCN [7a] | partial, full or superagonists | 144 to 146 | – | current amplitude ([2]; at 2.6 mM, x = 4): 10–30 pA
Cl.Cl.NCCCNC(=O)CCCN [7b] | – | 140 to 142 | 1.08 ± 0.14 | currents induced compared with GABA ([2]; at concentrations of 10 mM): comparable to those for GABA 30–100 µM
NCCCCNC(=O)CCCN [7c] | partial, full or superagonists | – | 1.75 ± 0.33 | –
Cl.Cl.NCCCC(=O)NCc1ccc(CN)cc1 | – | 251 to 253 | – | –
NCCCC(=O)NCCCCNC(=O)CCCN [4a] | partial, full or superagonists | – | – | changes in the current ([2]; x = 4): 0 pA
Cl.Cl.NCCCCCCNC(=O)CCCN [7d] | – | 147 to 150 | 5.25 ± 0.56 | activation threshold [2]: about 100 µM; EC50 ([2]; example concentration-response curve (Figures 2B, 5C), read-out: EC50 from the concentration dependence shown in the figure): ~5 mM and 5.1 mM
